According to the NIST ThermoML archive (doi:10.1016/j.jct.2012.03.015):
± gives the expanded uncertainty stated by the source.

Assay: activity coefficient (dimensionless); of the first substance listed, at infinite dilution; xn = mol fraction of the nth substance listed
Conditions: 101 kPa, Liquid, Chromatography, x1 = 0

Compound	activity coefficient (318.15 K)	activity coefficient (328.15 K)	activity coefficient (338.15 K)	activity coefficient (348.15 K)	activity coefficient (358.15 K)	activity coefficient (368.15 K)
Cc1ccccc1C [1,2-dimethylbenzene] + COCC[N+]1(C)CCCC1.O=S(=O)([N-]S(=O)(=O)C(F)(F)F)C(F)(F)F	1.94 ± 0.13	1.96 ± 0.13	1.97 ± 0.13	1.98 ± 0.13	1.99 ± 0.14	2 ± 0.14
Cc1cccc(C)c1 [1,3-dimethylbenzene] + COCC[N+]1(C)CCCC1.O=S(=O)([N-]S(=O)(=O)C(F)(F)F)C(F)(F)F	2.14 ± 0.15	2.16 ± 0.15	2.17 ± 0.15	2.19 ± 0.15	2.2 ± 0.15	2.22 ± 0.15
Cc1ccc(C)cc1 [1,4-dimethylbenzene] + COCC[N+]1(C)CCCC1.O=S(=O)([N-]S(=O)(=O)C(F)(F)F)C(F)(F)F	2.15 ± 0.15	2.17 ± 0.15	2.18 ± 0.15	2.2 ± 0.15	2.21 ± 0.15	2.23 ± 0.15
C1COCCO1 [1,4-dioxane] + COCC[N+]1(C)CCCC1.O=S(=O)([N-]S(=O)(=O)C(F)(F)F)C(F)(F)F	0.66 ± 0.05	0.68 ± 0.05	0.7 ± 0.05	0.72 ± 0.05	0.74 ± 0.05	0.76 ± 0.05
C=CCCCCCCCC [1-decene] + COCC[N+]1(C)CCCC1.O=S(=O)([N-]S(=O)(=O)C(F)(F)F)C(F)(F)F	41.7 ± 2.9	39 ± 2.7	36.4 ± 2.5	33.8 ± 2.3	31.7 ± 2.2	29.8 ± 2
C=CCCCCC [1-heptene] + COCC[N+]1(C)CCCC1.O=S(=O)([N-]S(=O)(=O)C(F)(F)F)C(F)(F)F	14.1 ± 1	13.4 ± 0.9	12.9 ± 0.9	12.3 ± 0.8	11.8 ± 0.8	11.4 ± 0.8
C#CCCCCC [1-heptyne] + COCC[N+]1(C)CCCC1.O=S(=O)([N-]S(=O)(=O)C(F)(F)F)C(F)(F)F	4.75 ± 0.32	4.71 ± 0.32	4.66 ± 0.32	4.62 ± 0.31	4.58 ± 0.31	4.55 ± 0.31
C#CCCCC [1-hexyne] + COCC[N+]1(C)CCCC1.O=S(=O)([N-]S(=O)(=O)C(F)(F)F)C(F)(F)F	3.29 ± 0.22	3.29 ± 0.22	3.28 ± 0.22	3.28 ± 0.22	3.28 ± 0.22	3.27 ± 0.22
CCC[N+](=O)[O-] [1-nitropropane] + COCC[N+]1(C)CCCC1.O=S(=O)([N-]S(=O)(=O)C(F)(F)F)C(F)(F)F	0.74 ± 0.05	0.742 ± 0.049	0.743 ± 0.049	0.744 ± 0.049	0.746 ± 0.049	0.747 ± 0.049
C#CCCCCCC [1-octyne] + COCC[N+]1(C)CCCC1.O=S(=O)([N-]S(=O)(=O)C(F)(F)F)C(F)(F)F	6.85 ± 0.47	6.73 ± 0.46	6.58 ± 0.45	6.48 ± 0.44	6.37 ± 0.43	6.27 ± 0.43
C=CCCC [1-pentene] + COCC[N+]1(C)CCCC1.O=S(=O)([N-]S(=O)(=O)C(F)(F)F)C(F)(F)F	6.65 ± 0.45	6.5 ± 0.44	6.35 ± 0.43	6.17 ± 0.42	6.07 ± 0.41	5.91 ± 0.4
CC(C)CC(C)(C)C [2,2,4-trimethylpentane] + COCC[N+]1(C)CCCC1.O=S(=O)([N-]S(=O)(=O)C(F)(F)F)C(F)(F)F	26.9 ± 1.8	25.1 ± 1.7	23.7 ± 1.6	22.3 ± 1.5	21.2 ± 1.4	20 ± 1.4
CCC(C)(C)C [2,2-dimethylbutane] + COCC[N+]1(C)CCCC1.O=S(=O)([N-]S(=O)(=O)C(F)(F)F)C(F)(F)F	15.1 ± 1	14.4 ± 1	13.7 ± 0.9	13.1 ± 0.9	12.6 ± 0.9	12 ± 0.8
